The source of these data is patent US6576464B2, “Methods for providing differentiated stem cells” (Geron Corporation, priority 2000, dated 2003).

Series [1] relates to H1 hES cells. The series can be described thus: Stable transfection of feeder-free hES cells with geneticin selection. The series is classed as cell-based, human. Particulars: 200 μg/mL in mEF-conditioned medium. Here is the method: To investigate whether the feeder-free hES cells undergo stable genetic modification, H1 hES cells maintained on Matrigel® were cotransfected with a mixture of 7.5 μg plasmid carrying β-galactosidase driven by the EF1a promoter, and 2.5 μg of plasmid carrying the PGK promoter driving the neophosphotransferase gene. The cells were transfected 48 h after plating them on Matrigel® in mEF-conditioned medium. 10 μg of plasmid plus 15 μl of FuGENE™ were incubated with the cells in 1 mnL for 4 h before adding 2.5 mL of mEF-conditioned medium. After 48 h, medium was exchanged for mEF-conditioned medium supplemented with 200 μg/mL geneticin. Cultures were maintained in this geneticin-containing medium with daily medium exchange for over 21 days. All mock-transfected cultures (i.e., those that received FUGENE™ mixed with water rather than plasmid) died within 48-72 h. Drug resistant colonies arose in the wells transfected with both FUGENE™ and plasmid at a frequency of about 1 in to 10^5 originally transfected cells. The colonies were maintained in geneticin-containing mEF-conditioned medium and expanded.

The subject of series [2] is hTERT. The series can be described thus: hTERT expression by RT-PCR after exposure to differentiation factors. It is filed as cell-based, human. Particulars: after exposure of hES cells to the factor. Here is the method: For radioactive relative quantification of individual gene products, QuantumRNA™ Alternate18S Internal Standard primers (Ambion, Austin Tex., USA) were employed according to the manufacturer's instructions. Briefly, the linear range of amplification of a particular primer pair was determined, then coamplified with the appropriate mixture of alternare18S primers:competimers to yield PCR products with coinciding linear ranges. Before addition of AmpliTaq™ (Roche) to PCR reactions, the enzyme was pre-incubated with the TaqStart™ antibody (ProMega) according to manufacturer's instructions. Radioactive PCR reactions were analyzed on 5% non-denaturing polyacrylamide gels, dried, and exposed to phosphoimage screens (Molecular Dynamics) for 1 hour. Screens were scanned with a Molecular Dynamics Storm 860 and band intensities were quantified using ImageQuant™ software. Results are expressed as the ratio of radioactivity incorporated into the hTERT or OCT-4 band, standardized to the radioactivity incorporated into the 18s band.
Primers and amplification conditions for particular markers are as follows.

In series [3] the test system is Undifferentiated H1 hES cells. The series can be described thus: Titration of GCV in TPAC vector treated hES cells. The series is classed as cell-based, human. Particulars: hES cells transduced with pGRN376 at MOI 30; 5, 10, 20, 30, 40 μM tested; day 2. The procedure: Undifferentiated H1 cells were plated into 24 well plates (1 confluent well of a 6 well plate split into 24 wells of a 24 well plate). After 48 h, some wells were infected with pGRN376 at an MOI of 30. Four h after addition of the viral vector, medium was exchanged for new mEF-CM; some wells received medium supplemented with 5, 10, 20, 30, or 40 μM ganciclovir (GCV). Cells exposed to GCV were re-fed with MEF-CM containing GCV daily for 2 days. On day 2 after the initiation of GCV treatment, wells were harvested and analyzed by flow cytometry to assess changes in total cell number, and cell viability (measured by PI exclusion).

Series [4] deals with H9 hES cell line clones. The series can be described thus: Ganciclovir sensitivity screen of stable GRN376mod-transfected hES clones. It is filed as cell-based, human. Particulars: ten of ninety GRN376mod clones; ganciclovir at a concentration of 30 μg. The source says: To facilitate creation of stable cell lines genetically altered with the hTERT promoter/thymidine kinase construct, plasmid pGRN376 (Example X) was modified to delete most of the adenovirus sequence. The plasmid was digested with Stul and Not I, followed by blunting and re-ligation. The remaining vector contained the hTERT promoter/thymidine kinase construct, preceded by the transcription blocking sequence to prevent promotion of tk gene expression by promoter sequences upstream from the integration site in the genome. The modified vector was designated pGRN376mod.
Cultures of the H9 hES cell line were split 1:4 using PBS containing 0.5 mM EDTA, as described earlier, and plated in feeder-free culture in 6-well plates. Twenty-four hrs after plating, cells were cotransfected with 2 μg GRN376mod plus 0.5 μg of a plasmid encoding neomycin pho, using FuGENETM-6 as described above. Medium containing 200 μg/mL geneticin was added 48 h after transfection to select out transfected cells. After 7-10 days in geneticin-containing medium, 103 individual colonies were picked from the wells and individually plated in 24-well plates, which were then expanded by culturing for ˜7 days. Ninety individual clones were screened for sensitivity to the pro-drug ganciclovir at a concentration of 30 μg. […]

Series [5] deals with tumor lines 143B, 293, HT1080, Bxpc-3', DAOY and NIH3T3. The series can be described thus: Ganciclovir treatment in vitro of tk+ tumor lines carrying hTERT promoter/tk constructs. It is filed as cell-based. Particulars: tk/+ stable clones or mass populations with pGRN266, pGRN267, pGRN268. The procedure:
(§1) The ability of the hTERT promoter to specifically drive the expression of the thymidine kinase (tk) gene in tumor cells was tested using a variety of constructs: One construct, designated pGRN266, contains an EcoRI-FseI PCR fragment with the tk gene cloned into the EcoRI-FseI sites of pGRN263. pGRN263, containing approximately 2.5 kb of hTERT promoter sequence, is similar to pGRN150, but contains a neomycin gene as selection marker. pGRN267 contains an EcoRI-FseI PCR fragment with the tk gene cloned into the EcoRI-FseI sites of pGRN264. pGRN264, containing approximately 210 bp of hTERT promoter sequence, is similar to pGRN176, but contains a neomycin gene as selection marker. pGRN268 contains an EcoRI-XbaI PCR fragment with the tk gene cloned into the EcoRI-XbaI (unmethylated) sites of pGRN265. pGRN265, containing approximately 90 bp of hTERT promoter sequence, is similar to pGRN175, but contains a neomycin gene as selection marker.
(§2) These hTERT promoter/tk constructs, pGRN266, pGRN267 and pGRN268, were reintroduced into mammalian cells and tk/+stable clones (and/or mass populations) were selected. […] Ganciclovir treatment had no effect on normal BJ cells.

Series [6] has as its system Undifferentiated hES lines H1 and H7. The series can be described thus: Comparison of hES lines: total cell number after pGRN376 and GCV. Particulars: mock-transduced cells. The series is classed as cell-based, human. The procedure: Undifferentiated hES of lines designated H1 and H7 cells were plated into 24 well plates (1 confluent well of a 6 well plate split into 24 wells of a 24 well plate). […] Four h after addition of the viral vector, medium was exchanged for new mEF-CM; some wells received medium supplemented with 20 AM GCV. Cells exposed to GCV were re-fed with mEF-CM containing GCV daily for 3 days. On day 4 after the initiation of GCV treatment, wells were harvested and analyzed by flow cytometry to assess changes in total cell number.

Series [7] relates to normal BJ cells. The series can be described thus: Ganciclovir treatment in vitro of normal cells carrying hTERT promoter/tk constructs. It is filed as cell-based. Here is the method:
as §1, §2

Series [8] concerns hES cells. The series can be described thus: Neuron formation from directly differentiated hES cells with neurotrophin growth factors (count of β-tubulin positive cells). It is filed as cell-based, human. Particulars: fixed after 7 days of differentiation. The procedure: The effect of several members of the neurotrophin growth factor family was examined. hES cells were differentiated by harvesting with collagenase, dissociating, and reseeding onto poly-ornithine coated cover slips. The cells were plated into DMEM/F12+N2+10% FBS overnight. The following day, the serum was removed from the medium and replaced with 10 ng/mL human bFGF and the growth factor being tested. After 24 hours, bFGF was removed from the medium. These cultures were fed every other day. They were fixed after 7 days of differentiation and immunostained for analysis. The number of neurons was evaluated by counting cells positive for β-tubulin. Cultures maintained in the presence of 10 ng/mL brain derived neurotrophic factor (BDNF) formed approximately 3-fold more neurons than the control cultures. Cultures maintained in neurotrophin-3 (1 ng/mL) formed approximately 2-fold more neurons than control cultures.

`CN[C@@H]1[C@@H](O)[C@@H](O[C@@H]2[C@@H](O)[C@H](O[C@H]3O[C@H]([C@@H](C)O)[C@@H](O)[C@H](O)[C@H]3N)[C@@H](N)C[C@H]2N)OC[C@]1(C)O` [geneticin]: the “time in which all mock-transfected cultures died” value in series [1] was 48 to 72 h.

As for `C[S+](C)[O-]` [dimethyl sulfoxide], the “expression of hTERT” value in series [2] was “markedly decreased”.

Take `Nc1nc(O)c2ncn(COC(CO)CO)c2n1` [ganciclovir]: in series [3], the “optimal GCV concentration” value was roughly 20 µM. Besides, in series [4], the “time in which essentially all undifferentiated cells died” value is 1 to 3 days. Besides, in series [5], the “effect of ganciclovir treatment on tk+ tumor lines” value is “selective destruction of all tumor lines tested”. Besides, the “toxicity induced by GCV alone, H7 compared with H1” value in series [6] is on record as “less toxicity”. The “effect of ganciclovir treatment on normal cells” value in series [7] was “no effect”.

B1: neurotrophin-3 (protein, UniProt P20783 139-257, looked up)
Neurotrophin-3: YAEHKSHRGEYSVCDSESLWVTDKSSAIDIRGHQVTVLGEIKTGNSPVKQYFYETRCKEARPVKNGCRGIDDKHWNSQCKTSQTYVRALTSENNKLVGWRWIRIDTSCVCALSRKIGRT
notes: neurotrophin growth factor
Consider B1, for which the “neurons formed relative to control cultures (cells positive for β-tubulin)” value in series [8] (1 ng/mL) is “approximately 2 fold”.

B2: brain derived neurotrophic factor (protein, UniProt P23560 19-247, looked up)
Neurotrophic factor BDNF …: APMKEANIRGQGGLAYPGVRTHGTLESVNGPKAGSRGLTSLADTFEHVIEELLDEDQKVRPNEENNKDADLYTSRVMLSSQVPLEPPLLFLLEEYKNYLDAANMSMRVRRHSDPARRGELSVCDSISEWVTAADKKTAVDMSGGTVTVLEKVPVSKGQLKQYFYETKCNPMGYTKEGCRGIDKRHWNSQCRTTQSYVRALTMDSKKRIGWRFIRIDTSCVCTLTIKRGR
notes: neurotrophin growth factor
Consider B2, for which the “neurons formed relative to control cultures (cells positive for β-tubulin)” value in series [8] (10 ng/mL) is recorded as “approximately 3 fold”.
